Several values for one entry are separate records, joined by “and”; a condition that tells them apart may be missing. Identical values can stand only once.
Assays:
Type in all cases: cell-based
SW620 spheroids [1] = assay: SW620 spheroid viability (CellTiterGlo 3D), microfluidic Ibidi chip
From the text: The tested schedules were designed to recapitulate mouse plasma PK profiles from similar schedules used in in vivo efficacy studies (Table 1) with a desire to reverse translate in vivo data and to evaluate the predictive ability of our microfluidic chip setup. […] We investigated changes in the spheroid volume, as well as viability using the CellTiterGlo assay. To evaluate whether our system could also be used to monitor treatment impact on pharmacodynamic biomarkers, we collected individual spheroids at the end of the treatment period and performed immunofluorescence analysis for γH2AX (DNA double strand break marker), cleaved caspase 3 (apoptosis) and Ki67 (proliferation marker), as detailed in “Methods” section and Supplementary Fig. 2. Each treatment condition was repeated at least three times and measurements for each condition were pooled from at least six spheroid replicates.
To mimic in vivo anti-cancer drugs PK profile at a constant flow rate, an 8-point concentration scale for specific durations was used. Each drug was delivered at a specific concentration, for a specific amount of time, consistent with the average concentration for the same durations in vivo, on a 24-h step schedule.
Each compound concentration/timing represented an average of the corresponding in vivo plasma values, measured by mass spectrometry (Supplementary Methods 4 and 5).
Spheroid viability assessment used a metabolic method (CellTiterGlo 3D, G9681, Promega) by measuring luminescence units expressed by individually recovered spheroids. Each chip bottom polymer film was cut using a scalpel and spheroids were individually collected and transferred in 25 µL media to the wells of a half area 96-well plate (1/2 AreaPlate-96, white, 6002290, Perkin-Elmer). CellTiterGlo vial was allowed to thaw (1 h, room temperature) and 25 µL reagent were added to each spheroid well. Plates were lidded with black sealing tape (Nunc, 731-0750, VWR) and placed on and orbital shaker for 40′. Luminescence levels were measured using a SpectraMax i3X (Molecular Devices, USA).

SW620 spheroids [2] = assay: SW620 spheroid size/volume, microfluidic Ibidi chip mimicking mouse PK profile
Description: Spheroid images were taken for each experimental endpoint (day 7) using a Leica DMI4000B microscope (Leica Microsystems) with brightfield (BF), phase-contrast and fluorescence filters. Each flow line used two chips, one for viability assays and second for immunofluorescence. Both chips were imaged in BF prior spheroid recovery. Hardware embedded microscope scale has been translated in Fiji ImageJ to evaluate spheroid area/volume. The average size for SW620 spheroids was evaluated by measuring spheroid projection area in bright-field images, based on a macro script designed in an open-source imaging software (Fiji ImageJ) (Supplementary Method 1). Spheroid volume was evaluated following radius deduction from the measured area.

Ki67 = Ki67 immunofluorescence in SW620 spheroids, microfluidic chip
From the text: SN38 is a TOP1 inhibitor that that prevents relegation of the DNA strand by binding to TOP1–DNA complex and causes DNA double strand breaks (DSBs). Those DNA DSB lesions trigger activation of the ATM kinase for effective repair. Inhibition of ATM and consequent accumulation of unrepaired breaks leading to increased cell death provides the rationale for developing this combination for cancer treatment. […] Here, we tested whether different schedules lead to different activation of pharmacodynamic markers that are associated with DNA DSB damage, apoptosis and cell proliferation. The γ-H2AX associated foci accumulate in cells exposed to DBS inducing agents[18],[19]. These foci can be detected by immunostaining to determine their, size and morphology. However, spheroid imaging using a 20x objective on a CV7000 confocal microscope cannot accurately explore foci morphology, so we introduced customised ImageJ macros (described in “Methods” section, Supplementary Fig. 2 and Supplementary Method 1) to quantitate positive cells within a spheroid. The same method was applied to quantitate CC3-positive (apoptotic) cells, while normalisation by spheroid area was not required for Ki67, as this biomarker is present in all proliferating cells. […]
Total Hoechst area represents a parameter used for normalization within biomarker quantitation. […]

## CCc1c2c(nc3ccc(O)cc13)-c1cc3c(c(=O)n1C2)COC(=O)[C@]3(O)CC [SN38]
SW620 spheroids [1]; Microfluidic Ibidi chip, 6 days, CellTiterGlo, replicates (Fig 2d raw data), unit not given
  spheroid viability: 62.9 and 51.36 and 50.85 and 54.46 and 62.33 and 64.07 (2×)
SW620 spheroids [1]; microfluidic chip, SN38 mono (1d), day 7, single spheroids
  spheroid viability: 6192690 RLU and 5479774 RLU and 8813513 RLU and 7953995 RLU and 8522809 RLU and 9260029 RLU and 5533818 RLU and 5710166 RLU
SW620 spheroids [1]; microfluidic, dosed to mimic in vivo PK profile, 6 days
  reduction in viability: ~ 40%
SW620 spheroids [2]; Microfluidic Ibidi chip, PK-profile exposure, 6 days, single spheroids (Fig 2c raw data)
  spheroid size at day 6, fold increase in size over day 1: 2.9097 and 2.688 and 2.723 and 2.5658
SW620 spheroids [2]; microfluidic chip, SN38 mono (1d), day 7
  spheroid volume as percentage of untreated control: 55%
Ki67; Mono SN38, day 7, single spheroids
  Ki67 positive area: 3.88E+07 and 4.54E+07 and 3.33E+07 and 4.06E+07 and 4.69E+07
Ki67; SN38 monotherapy, day 7
  decrease in proliferation (Ki67) compared to control: about 20%
